The nature of data set [1]: Single-dose oral pharmacokinetic profile in mice. The class given is in vivo. Conditions: male C57BL/6 mice, single oral dose 200 mg/kg; for CL/F / MRT / half-life / AUC(0-t) / Cmax: mouse, plasma. The protocol:
Presumed from promising Papp values (permeability coefficients, see below), the 5 inventors had proven the oral bioavailability of the inhibitors of the present application by the representative compounds II-3, II-15, and II-28. For this selected set of representative compounds, pharmacokinetic profiles were determined in male C57BL/6 mice (N=3, each). Briefly, the compounds were administered as single-dose soluble, oral formulation [20 mg/ml in PBS/(2—Hydroxypropyl)-β-cyclodextrin formulation] at 200 mg/kg. Plasma samples were taken at (0, 0.25, 0.5, 1, 2, 4, and 6 hours) and analyzed by LC-MS to determine the concentration of the representative compounds.

Data set [2] is described as follows: logD by shake flask method (octanol / PBS pH 7.4, HPLC). It counts as physicochemical. The settings on record: octanol / PBS pH 7.4, shake flask. In a few lines: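 LogD obtained by HPLC measurement of how the compound distributes between PBS (pH 7.4) and octanol in a shake-flask experiment.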
Data set [3] concerns the target T1, recombinant human transglutaminase 2 (Homo sapiens, UniProt P21980).
T1 construct: purchased Zedira T022
T1 sequence (P21980 1-687): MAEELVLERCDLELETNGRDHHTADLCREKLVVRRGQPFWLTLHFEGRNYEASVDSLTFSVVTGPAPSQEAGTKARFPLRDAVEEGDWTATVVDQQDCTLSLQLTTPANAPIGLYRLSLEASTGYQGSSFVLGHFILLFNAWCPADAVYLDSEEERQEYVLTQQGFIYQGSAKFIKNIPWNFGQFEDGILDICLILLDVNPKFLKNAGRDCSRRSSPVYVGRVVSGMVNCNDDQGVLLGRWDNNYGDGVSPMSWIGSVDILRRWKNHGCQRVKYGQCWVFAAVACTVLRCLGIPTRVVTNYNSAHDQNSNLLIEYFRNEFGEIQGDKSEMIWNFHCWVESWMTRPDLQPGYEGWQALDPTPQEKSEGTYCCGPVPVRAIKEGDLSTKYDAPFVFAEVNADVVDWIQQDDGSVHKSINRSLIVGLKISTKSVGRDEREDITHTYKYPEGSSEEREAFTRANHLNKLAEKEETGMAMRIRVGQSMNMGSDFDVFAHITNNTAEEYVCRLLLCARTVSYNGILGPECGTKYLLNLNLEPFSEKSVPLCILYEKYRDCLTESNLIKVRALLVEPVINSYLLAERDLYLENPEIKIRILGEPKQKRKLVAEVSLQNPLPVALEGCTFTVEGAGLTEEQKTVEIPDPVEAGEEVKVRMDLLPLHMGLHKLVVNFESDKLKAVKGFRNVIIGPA
Put plainly: Transglutaminase assay (DCC-assay): incorporation of dansylcadaverine into dimethylcasein. The class given is biochemical. In a few lines: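 IC50 is the inhibitor level that blocks 50% of initial activity. Activity is the fluorescence slope (λex 330, λem 500 nm) between 20 and 30 min of a 37 °C run, relative to a 2% DMSO control. The enzyme is recombinant human tissue transglutaminase, 10 nM final, tested against a 1:2 inhibitor dilution series in a pH 8.0 mix with 10 mM CaCl2, 10 mM glutathione, 16.7 µM dansylcadaverine and 4 µM N,N-dimethylcasein.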

Data set [4] in a line: Caco-2 permeability assay (CacoReady kit). The class given is in vitro ADME. Conditions: human. In a few lines:
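Caco-2 monolayer barrier, commercial ready-to-use kit, manufacturer protocol. Read-out: Papp.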
In general terms: Caco-2 cells form a polarised layer with tight junctions and transporters.

Where [5] appears, read: TG2, table with the PK study, read-out: IC50.
Where [6] appears, read: recombinant human TG2 10 nM, dansylcadaverine incorporation into dimethylcasein, read-out: IC50 TG2.
Setting [7] is: Caco-2, Caco-2, read-out: Papp [cm/s] ×10^−6.
Where [8] appears, read: Caco-2, Caco-2 barrier, CacoReady kit, above 1×10^−6 cm/s classified as permeable.

Read-outs that look alike come from different tables or passages of the source. A value given as a limit tells only on which side of the number the result lay.

A word on the CL/F: it is the apparent clearance, not corrected for the fraction that reaches the circulation. What is called MRT is a mean duration of stay, worked out from the concentration-time curve. By half-life is commonly meant the time in which the quantity being followed falls by half. A low value points to rapid decline. The term AUC(0-t) denotes exposure summed from dosing to a finite time, without extrapolation to infinity. What is called logD is the decadic logarithm of the distribution of all forms, ionised or not, between an organic phase and buffer at a given pH. Higher therefore signals higher lipophilicity. As a reminder, the IC90 is the concentration needed for an effect of 90%. As usually defined, the IC50 is the concentration that gives 50% inhibition. `CNC(=O)C(=O)CC[C@H](NC(=O)c1sc(C(F)(F)F)nc1C)C(=O)Nc1cccn(CC(=O)NC2C3CC4CC(C3)CC2C4)c1=O` (stereo partly drawn) [II-15, (S)-N1-(1-(2-(2-adamantylamino)-2-oxoethyl)-2-oxo-1,2-dihydropyridin-3-yl)-N6-methyl-2-(4-methyl-2-(trifluoromethyl)thiazole-5-carboxamido)-5-oxohexanediamide]: in data set [1], the “Kel” value turned out to be 0.9 h⁻¹, the CL/F is 102 mL/min/kg, the MRT came out at 1.1 h and the half-life is 0.9 h. This compound returned an AUC(0-t) in data set [1] of 36900 ng·h/mL. For the same compound, in data set [1] (read-out: Cmax), the Cmax came to 48.6 µM. Further, the Cmax in data set [1] (read-out: Cmax [ng/ml]) was determined as 32300 ng/mL. In data set [2], this compound came in with a logD of 1 to 3. Besides, in data set [3] (TG2, table with the PK study), the IC90 was found to be 375 nM. The IC50 in data set [3] (setting [5]) amounted to 35 nM. Besides, the IC50 in data set [3] (setting [6]) is less than 40 nM. Besides, the Papp in data set [4] (setting [7]) is 5.9 ×10⁻⁶ cm/s. Moreover, the Papp in data set [4] (setting [8]) was 1 to 10 ×10⁻⁶ cm/s.
Take `CNC(=O)C(=O)CC[C@H](NC(=O)c1cc(Cl)sc1Cl)C(=O)Nc1cccn(CC(=O)NC2C3CC4CC(C3)CC2C4)c1=O` (stereo partly drawn) [II-28, (S)-2-(2,5-dichlorothiophene-3-carboxamido)-N1-(1-(2-(2-adamantylamino)-2-oxoethyl)-2-oxo-1,2-dihydropyridin-3-yl)-N6-methyl-5-oxohexanediamide]: in data set [1], the “Kel” value amounted to 0.6 h⁻¹, the CL/F was 247 mL/min/kg, the MRT is 1.6 h and the half-life was 1.1 h. In data set [1], this compound gave an AUC(0-t) of 14500 ng·h/mL. Besides, the Cmax in data set [1] (read-out: Cmax) worked out at 23.3 µM. In addition, in data set [1] (read-out: Cmax [ng/ml]), the Cmax was 15100 ng/mL. In data set [2], this compound registered a logD of 1 to 3. In addition, the IC90 in data set [3] (TG2, table with the PK study) came out at 240 nM. The IC50 in data set [3] (setting [5]) is 24 nM. The IC50 in data set [3] (setting [6]) is less than 40 nM. For the same compound, the Papp in data set [4] (setting [7]) was 7.4 ×10⁻⁶ cm/s. The Papp in data set [4] (setting [8]) lay in the range of 1 to 10 ×10⁻⁶ cm/s.
Compound `CNC(=O)C(=O)CC[C@H](NC(=O)c1snnc1C1CC1)C(=O)Nc1cccn(CC(=O)NC2C3CC4CC(C3)CC2C4)c1=O` (stereo partly drawn) [II-202, (S)-2-(4-cyclopropyl-1,2,3-thiadiazole-5-carboxamido)-N1-(1-(2-(2-adamantylamino)-2-oxoethyl)-2-oxo-1,2-dihydropyridin-3-yl)-N6-methyl-5-oxohexanediamide] showed a logD in data set [2] of less than 1. Also, in data set [3] (setting [6]), the IC50 was in the range of 40 to 400 nM. The same compound yielded a Papp in data set [4] (setting [8]) of less than 1 ×10⁻⁶ cm/s.
On to `CNC(=O)C(=O)CC[C@H](NC(=O)c1snnc1C(C)C)C(=O)Nc1cccn(CC(=O)NC2C3CC4CC(C3)CC2C4)c1=O` (stereo partly drawn) [II-203, (S)-2-(4-isopropyl-1,2,3-thiadiazole-5-carboxamido)-N1-(1-(2-(2-adamantylamino)-2-oxoethyl)-2-oxo-1,2-dihydropyridin-3-yl)-N6-methyl-5-oxohexanediamide], for which the logD in data set [2] lay in the range of 1 to 3. Moreover, the IC50 in data set [3] (setting [6]) lay in the range of 40 to 400 nM. In data set [4] (setting [8]), this compound returned a Papp of less than 1 ×10⁻⁶ cm/s.
On to `CCc1nnsc1C(=O)N[C@@H](CCC(=O)C(=O)NC)C(=O)Nc1cccn(CC(=O)NC2C3CC4CC(C3)CC2C4)c1=O` (stereo partly drawn) [II-204, (S)-2-(4-ethyl-1,2,3-thiadiazole-5-carboxamido)-N1-(1-(2-(2-adamantylamino)-2-oxoethyl)-2-oxo-1,2-dihydropyridin-3-yl)-N6-methyl-5-oxohexanediamide], for which the logD in data set [2] is 1 to 3. In data set [3] (setting [6]), the half-inhibitory concentration (IC50) is 40 to 400 nM. The compound also registered a Papp in data set [4] (setting [8]) of less than 1 ×10⁻⁶ cm/s.
For `CNC(=O)C(=O)CC[C@H](NC(=O)c1snnc1C=O)C(=O)Nc1cccn(CC(=O)NC2C3CC4CC(C3)CC2C4)c1=O` (stereo partly drawn) [II-205, (S)-2-(4-formyl-1,2,3-thiadiazole-5-carboxamido)-N1-(1-(2-(2-adamantylamino)-2-oxoethyl)-2-oxo-1,2-dihydropyridin-3-yl)-N6-methyl-5-oxohexanediamide] the same measures were less than 1, 40 to 400 nM and less than 1 ×10⁻⁶ cm/s.
Take `CNC(=O)C(=O)CC[C@H](NC(=O)c1snnc1CO)C(=O)Nc1cccn(CC(=O)NC2C3CC4CC(C3)CC2C4)c1=O` (stereo partly drawn) [II-206, (S)-2-(4-(hydroxymethyl)-1,2,3-thiadiazole-5-carboxamido)-N1-(1-(2-(2-adamantylamino)-2-oxoethyl)-2-oxo-1,2-dihydropyridin-3-yl)-N6-methyl-5-oxohexanediamide]: the logD in data set [2] was less than 1. Moreover, the IC50 in data set [3] (setting [6]) fell in the range of 40 to 400 nM. In addition, the Papp in data set [4] (setting [8]) is less than 1 ×10⁻⁶ cm/s.
For `CNC(=O)C(=O)CC[C@H](NC(=O)c1cncn1C)C(=O)Nc1cccn(CC(=O)NC23CC4CC(CC(C4)C2)C3)c1=O` [II-207, (S)-N1-(1-(2-(1-adamantylamino)-2-oxoethyl)-2-oxo-1,2-dihydropyridin-3-yl)-N6-methyl-2-(1-methyl-1H-imidazole-5-carboxamido)-5-oxohexanediamide] the same measures were less than 1, 40 to 400 nM and less than 1 ×10⁻⁶ cm/s.
For the compound `CNC(=O)C(=O)CC[C@H](NC(=O)c1nccn1C)C(=O)Nc1cccn(CC(=O)NC[C@@H]2CC[C@H]3C[C@@H]2C3(C)C)c1=O` [II-208, (S)-N1-(1-(2-(((1S,2R,5S)-6,6-dimethylbicyclo[3.1.1]heptan-2-yl)methylamino)-2-oxoethyl)-2-oxo-1,2-dihydropyridin-3-yl)-N6-methyl-2-(1-methyl-1H-imidazole-2-carboxamido)-5-oxohexanediamide], the logD in data set [2] was in the range of 1 to 3. The IC50 in data set [3] (setting [6]) was in the range of 400 to 2500 nM. Further, the Papp in data set [4] (setting [8]) is less than 1 ×10⁻⁶ cm/s.
In data set [2], `CNC(=O)C(=O)CC[C@H](NC(=O)c1c[nH]cn1)C(=O)Nc1cccn(CC(=O)NC[C@@H]2CC[C@@H]3C[C@H]2C3(C)C)c1=O` [II-209, (S)-N1-(1-(2-(((1R,2R,5R)-6,6-dimethylbicyclo[3.1.1]heptan-2-yl)methylamino)-2-oxoethyl)-2-oxo-1,2-dihydropyridin-3-yl)-2-(1H-imidazole-4-carboxamido)-N6-methyl-5-oxohexanediamide] came in with a logD of 1 to 3. For the same compound, the IC50 in data set [3] (setting [6]) lay in the range of 400 to 2500 nM. Also, the Papp in data set [4] (setting [8]) was less than 1 ×10⁻⁶ cm/s.
On to `CNC(=O)C(=O)CC[C@H](NC(=O)c1cncn1C)C(=O)Nc1cccn(CC(=O)NC23CC4CC(C)(CC(C)(C4)C2)C3)c1=O` [II-210, (S)-N1-(1-(2-(3,5-dimethyladamantane-1-amino)-2-oxoethyl)-2-oxo-1,2-dihydropyridin-3-yl)-N6-methyl-2-(1-methyl-1H-imidazole-5-carboxamido)-5-oxohexanediamide], for which the logD in data set [2] lay within 1 to 3. For the same compound, the IC50 in data set [3] (setting [6]) lay in the range of 40 to 400 nM. The Papp in data set [4] (setting [8]) is less than 1 ×10⁻⁶ cm/s.
In turn, `CNC(=O)C(=O)CC[C@H](NC(=O)c1cncn1C)C(=O)Nc1cccn(CC(=O)NC23CC4(C)CC(C)(CC(C)(C4)C2)C3)c1=O` [II-211, (S)-N1-(1-(2-(3,5,7-trimethyl-1-adamantylamino)-2-oxoethyl)-2-oxo-1,2-dihydropyridin-3-yl)-N6-methyl-2-(1-methyl-1H-imidazole-5-carboxamido)-5-oxohexanediamide] returned a logD in data set [2] of 1 to 3. The half-inhibitory concentration (IC50) in data set [3] (setting [6]) fell in the range of 40 to 400 nM. The compound also returned a Papp in data set [4] (setting [8]) of less than 1 ×10⁻⁶ cm/s.

Source of the values: patent US20240383856A1 (Zedira GmbH, priority 2021, published 2024).
